Where two headings read alike, the source gives them in different places. Marks after values point to notes of the source that are not given here.

One data set has as its system Serum cholesterol. The data set is described as follows: Serum cholesterol analysis in ovariectomized rats. It is filed as in vivo, Sprague Dawley rats. The settings on record: oral, daily for 4 days, decrease versus ovariectomized controls.
For data set [1], the system named is Uterine Eosinophil Peroxidase (EPO). The settings on record: rat, in vivo.
Source text: (§1) Seventy-five day old female Sprague Dawley rats (weight range of 200 to 225g) are obtained from Charles River Laboratories (Portage, MI). The animals are either bilaterally ovariectomized (OVX) or exposed to a Sham surgical procedure at Charles River Laboratories, and then shipped after one week. Upon arrival, they are housed in metal hanging cages in groups of 3 or 4 per cage and have ad libitum access to food (calcium content approximately 0.5%) and water for one week. Room temperature is maintained at 22.2° ± 1.7° C with a minimum relative humidity of 40%. The photoperiod in the room is 12 hours light and 12 hours dark.
(§2) Dosing Regimen Tissue Collection. After a one week acclimation period (therefore, two weeks post-OVX) daily dosing with test compound is initiated. 17α-ethynyl estradiol or the test compound is given orally, unless otherwise stated, as a suspension in 1% carboxymethylcellulose or dissolved in 20% cyclodextrin. Animals were dosed daily for 4 days. Following the dosing regimen, animals are weighed and anesthetized with a ketamine: Xylazine (2:1, V:V) mixture and a blood sample is collected by cardiac puncture. The animals are then sacrificed by asphyxiation with CO2, the uterus is removed through a midline incision, and a wet uterine weight is determined.
(§3) Uterine Eosinophil Peroxidase (EPO) Assay. Uteri are kept at 4° C until time of enzymatic analysis. The uteri are then homogenized in 50 volumes of 50 mM Tris buffer (pH - 8.0) containing 0.005% Triton X-100. Upon addition of 0.01% hydrogen peroxide and 10 mM O-phenylenediamine (final concentrations) in Tris buffer, increase in absorbance is monitored for one minute at 450 nm. The presence of eosonophils in the uterus is an indication of estrogenic activity of a compound. The maximal velocity of a 15 second interval is determined over the initial, linear portion of the reaction curve.
A short description of a further data set: physchem. The settings on record: 66% dmf.
Data set [2] has as its system ovariectomized rats. The data set is described as follows: Osteoporosis Test Procedure: 35-day ovariectomized rat, femur density. It is filed as in vivo, Sprague Dawley rats. The settings on record: oral, in 20% hydroxypropyl β-cyclodextrin, daily for 35 days; result in words. The protocol: Following the General Preparation Procedure, infra, the rats are treated daily for 35 days (6 rats per treatment group) and sacrificed by carbon dioxide asphyxiation on the 36th day. The 35 day time period is sufficient to allow maximal reduction in bone density, measured as described herein. At the time of sacrifice, the uteri are removed, dissected free of extraneous tissue, and the fluid contents are expelled before determination of wet weight in order to confirm estrogen deficiency associated with complete ovariectomy. […] The uteri are then placed in 10% neutral buffered formalin to allow for subsequent histological analysis. The right femurs are excised and digitilized x-rays generated and analyzed by an image analysis program (NIH image) at the distal metaphysis. The proximal aspect of the tibiae from these animals are also scanned by quantitative computed tomography. In accordance with the above procedures, compounds of the present invention and ethynyl estradiol (EE2) in 20% hydroxypropyl β-cyclodextrin are orally administered to test animals.

The subject of data set [3] is Uterine Eosinophil Peroxidase (EPO). The data set is described as follows: Uterine Eosinophil Peroxidase (EPO) Assay in ovariectomized rats. The settings on record: for Uterine Eosinophil (Vmax): oral, daily for 4 days, eosinophil peroxidase Vmax.
Source text: as §1, §2, §3
Data set [4] relates to ovariectomized rats. The data set can be described thus: Uterine weight in ovariectomized rat post-menopausal model, 4 days oral dosing. The settings on record: daily for 4 days, increase versus ovariectomized controls.
Source text: as §1, §2
The test system of data set [5] is MCF-7 breast adenocarcinoma cells (ATCC HTB 22). The data set can be described thus: MCF-7 Proliferation Assay (tritiated thymidine). The settings on record: Homo sapiens, MCF7; MCF-7 cells, 48 hours with drug, tritiated thymidine pulse 4 hours. Format: cell-based. As to the method: MCF-7 breast adenocarcinoma cells (ATCC HTB 22) are maintained in MEM (minimal essential medium, phenol red-free, Sigma, St. Louis, MO) supplemented with 10% fetal bovine serum (FBS) (V/V), L-glutamine (2 mM), sodium pyruvate (1 mM), HEPES {(N-[2-hydroxyethyl]piperazine-N'-[2-ethanesulfonic acid]10 mM}, non-essential amino acids and bovine insulin (1 ug/mL) (maintenance medium). Ten days prior to assay, MCF-7 cells are switched to maintenance medium supplemented with 10% dextran coated charcoal stripped fetal bovine serum (DCC-FBS) assay medium) in place of 10% FBS to deplete internal stores of steroids. MCF-7 cells are removed from maintenance flasks using cell.dissociation medium (Ca++/Mg++ free HBSS (phenol red-free) supplemented with 10 mM HEPES and 2 mM EDTA). Cells are washed twice with assay medium and adjusted to 80,000 cells/mL. Approximately 100 µL (8,000 cells) are added to flat-bottom microculture wells (Costar 3596) and incubated at 37° C in a 5% CO2 humidified incubator for 48 hours to allow for cell adherence and equilibration after transfer. Serial dilutions of drugs or DMSO as a diluent control are prepared in assay medium and 50 µL transferred to triplicate microcultures followed by 50 µL assay medium for a final volume of 200 µL. […] Samples are counted by liquid scintillation using a Wallac BetaPlace β counter. […]

Source text for Serum cholesterol: as §1, §2
Cholesterol Analysis. Blood samples are allowed to clot at room temperature for 2 hours, and serum is obtained following centrifugation for 10 minutes at 3000 rpm. Serum cholesterol is determined using a Boehringer Mannheim Diagnostics high performance cholesterol assay. Briefly the cholesterol is oxidized to cholest-4-en-3-one and hydrogen peroxide. The hydrogen peroxide is then reacted with phenol and 4-aminophenazone in the presence of peroxidase to produce a p-quinone imine dye, which is read spectrophotemetrically at 500 nm. Cholesterol concentration is then calculated against a standard curve. The entire assay is automated using a Biomek Automated Workstation.

In the case of “[2-(4-n-Butylsulfonoylphenyl)-6-n-butylsulfonoylbenzo[b]thien-3-yl][4-[2-(1-piperidinyl)ethoxy]phenyl]methanone N-oxide [Example 5]”, in the data set with Serum cholesterol (1.0 mg/kg), the “Serum Cholest. % Dec.” value is reported as 74.9* %. For the same compound, in data set [1], the “Uterine Eosinophil (Vmax)” value was 4.7.

Take `[O-][N+]1(CCOc2ccc(C(O)c3c(-c4ccc(O)cc4)sc4cc(O)ccc34)cc2)CCCCC1` (stereo not shown) [Example 6]: the pKa in the data set “pKa determination” came to 6.41.

In the case of `O=C(c1ccc(OCC[N+]2([O-])CCOCC2)cc1)c1c(-c2ccc(O)cc2)sc2cc(O)ccc12` [Example 4, [2-(4-Hydroxyphenyl)-6-hydroxybenzo[b]thien-3-yl][4-[2-(1-morpholino)ethoxy]phenyl]methanone N-oxide], the “Serum Cholest. % Dec.” value with Serum cholesterol (1.0 mg/kg) is given as 56.2* %. Moreover, the “Uterine Eosinophil (Vmax)” value in data set [1] was 4.1.

In the case of `[O-][N+]1(CCOc2ccc(Cc3c(-c4ccc(O)cc4)sc4cc(O)ccc34)cc2)CCCCC1` [Example 7, [2-(4-Hydroxyphenyl)-6-hydroxybenzo[b]thien-3-yl][4-[2-(1-piperidinyl)ethoxy]phenyl]methane N-oxide], in “pKa determination”, the pKa worked out at 6.49.

Turning to `CC[N+]([O-])(CC)CCOc1ccc(C(=O)c2c(-c3ccc(O)cc3)sc3cc(O)ccc23)cc1` [Example 3, [2-(4-Hydroxyphenyl)-6-hydroxybenzo[b]thien-3-yl][4-[2-(N, N-diethyl)ethoxy]phenyl]methanone N-oxide], the “Serum Cholest. % Dec.” value in the data set with Serum cholesterol (1.0 mg/kg) is given as 64.2* %. Also, the “Uterine Eosinophil (Vmax)” value in data set [1] is recorded as 21.7*. The compound also yielded a pKa in the data set “physchem” of 6.15.

Take `C#C[C@]1(O)CC[C@H]2[C@@H]3CCc4cc(O)ccc4[C@H]3CC[C@@]21C` [EE2, 17α-ethynyl estradiol, reference compound]: the “Serum Cholest. % Dec.” value in the data set with Serum cholesterol (0.1 mg/kg) is on record as 87.3* %. The “bone loss (femur density)” value with ovariectomized rats [2] is “prevented this loss”. In addition, in data set [3] (0.1 mg/kg), the “Uterine Eosinophil (Vmax)” value is on record as 205.8*. For the same compound, the “eosinophil infiltration into the uterus” value in data set [3] (result in words, stromal layer of ovariectomized rat uteri) is “substantial and expected increase”. Besides, the “Uterine Weight % Inc” value in the data set on ovariectomized rats [4] (0.1 mg/kg) is on record as 207.5* %.

As for `COc1ccc(-c2sc3cc(OC)ccc3c2C(=O)c2ccc(OCC[N+]3([O-])CCCCC3)cc2)cc1` [Example 2], the “Serum Cholest. % Dec.” value in the data set on Serum cholesterol (1.0 mg/kg) was 65.7* %. Further, the “Uterine Eosinophil (Vmax)” value in data set [1] was 11.2. This compound returned a pKa in the data set “physchem” of 6.39.

Consider `O=C(c1ccc(OCC[N+]2([O-])CCCCC2)cc1)c1c(-c2ccc(O)cc2)sc2cc(O)ccc12` [Example 1, [2-(4-Hydroxyphenyl)-6-hydroxybenzo[b]thien-3-yl][4-[2-(1-piperidinyl)ethoxy]phenyl]methanone N-oxide], for which the entries for the “Serum Cholest. % Dec.” value in the data set on Serum cholesterol (0.1 mg/kg), in the data set with Serum cholesterol (1.0 mg/kg) and with Serum cholesterol (10.0 mg/kg) were 44.9* %, 68.7* % and 70.3* %, respectively. This compound also came in with an IC50 in data set [5] of approximately 1 µM. In the data set “pKa determination” (66% dmf), this compound showed a pKa of 6.28. The “Uterine Eosinophil (Vmax)” value in data set [3] (0.1 mg/kg) is reported as 4.4; in data set [3] (1.0 mg/kg), 4.6; in data set [3] (10.0 mg/kg), 2.5. Also, the “Uterine Weight % Inc” value with ovariectomized rats [4] (0.1 mg/kg) was 31.2* %; with ovariectomized rats [4] (1.0 mg/kg), 29.6* %; in the data set with ovariectomized rats [4] (10.0 mg/kg), 8.3%.

The record behind these values is patent EP0791591B1, “Benzothiophenes, formulations containing same, and methods for their préparation” (ELI LILLY AND COMPANY, priority 1996, dated 1997).
